According to patent publication US10047084B2, “Imidazolone derivatives, pharmaceutical compositions and uses thereof” (BEIJING FORELANDPHARMA CO. LTD., priority 2013, dated 2018):

Legend:
mTOR kinase = mTOR kinase (Homo sapiens (Human), UniProt P42345); test: mTOR kinase activity assay (TR-FRET, GFP-4EBP1 substrate); type: biochemical; conditions: read-out: Enzyme (mTOR) IC50
Method: 1. mTOR Kinase Activity Assay: The inhibition of the mTOR protein kinase activity by the compounds was determined by the enzymatic activity assay in vitro. The detection kit supplied by Invitrogen was used to detect the inhibition of the activity of the mTOR […]. The principle of the assay was as follows: mTOR kinase, fluorescein-labeled substrate and ATP were mixed, and after the reaction, EDTA and terbium-labeled first antibody were added. During the chemical reaction process of the mTOR kinase, the antibody recognized the phosphorylated and fluorescein-labeled substrate, and then the “time-resolved fluorescence resonance energy transfer” (TR-FRET) effect was enhanced. TR-FRET effect was calculated as the ratio of signals from the acceptor fluorescein to signals from the donor terbium. The amount of the antibody bound to the tracer was directly proportional to the amount of the phosphorylated substrate after the reaction. In this way, the kinase activity can be detected. In this assay, the substrate of the mTOR kinase was green fluorescent protein-coupled 4E binding protein 1 (GFP-4EBP1).
1.1 Materials and Instruments:
4-Hydroxyethylpiperazine ethanesulfonic acid (HEPES, Sigma, Cat# SH3375), ethylene glycol-bis-(2-aminoethylether)-tetraacetic acid (EGTA, Sigma, Cat# E3889), manganese chloride (MnCl2, Sigma, Cat# M1787), Tween-20 (Tween-20, Amresco), 1,4-dithiothreitol (DTT, Merck, CB233155),

PC-3 = test: CTG cell survival assay, PC-3; type: cell-based; conditions: Homo sapiens, PC-3 cells
Excerpt: (§1) 2. CTG Cell Survival Assay:
(§2) ATP is necessarily produced during the metabolic activities of viable cells, and there is a linear relationship between the content of ATP and the number of viable cells. Cell viability assay by CTG chemiluminescence is a general method for detecting the number of viable cells in the culture cells based on this principle. The addition of the CellTiter-Glo (CTG) reagent may induce cell lysis and produce chemiluminescent signals directly proportional to the amount of ATP in the well-plate, and thereby the cell proliferation activity in the well-plate can be measured by the reading values from the chemiluminescence.
(§3) 2.1 Experimental Materials and Instruments:
(§4) 2.4 Experimental Procedure: • 1.4.1 Cell Thawing: Cryogenic vials were removed from the liquid nitrogen container, directly immersed in a water bath at 37° C., and shaked from time to time to thaw. The cryogenic vials were removed from the water bath at 37° C., and transferred to the biosafe cabinet. Their lids were opened, and the cell suspensions were aspirated with pipettes, added to centrifuge tubes, and then added with more than 10 volumes of culture solution, mixed well; centrifuged for 5 min at 1000 rpm; the supernatant was discarded, and medium containing cell growth was added to resuspend cells. All cell suspensions were seeded to the T25 culture flasks and static cultured in an incubator at 37° C.; the culture solution were changed once on the next day, and continued to be cultured. • 2.4.2 Cell Passaging: After cells were grown to logarithmic phase and were 80%-90% confluent, cells were removed and placed in the biosafe cabinet, the old culture solution was discarded, and the cells were wetted and washed with PBS once or twice. An appropriate amount of 0.25% Trypsin-EDTA solution was added to the culture flasks. The flasks were placed in the carbon dioxide incubator at 37° C. for 2-5 min. An appropriate amount of cell growth medium containing 10% PBS was added to terminate the digestion, lightly swished, and transferred to the centrifuge tubes and centrifuged for 5 min at 1000 rpm. The cells were prepare (into cell suspensions for passaging and experimental use. • 2.4.3 Cell Plating • 2.4.3.1 A cell suspension was prepared: After cells were grown to logarithmic phase and were 80%-90% confluent, the cells were removed to the biosafe cabinet, and the old culture solution was discarded, then the cells were wetted and washed with PBS once or twice. An appropriate amount of 0.25% Trypsin-EDTA solution was added to the culture flask. The flask was placed in a carbon dioxide incubator at 37° C. for 2-5 min. An appropriate amount of the cell growth medium containing 10% PBS was added to terminate digestion, and was lightly swished. The solution was transferred to a centrifuge tube, centrifuged for 5 min at 1000 rpm, and counted. […] Secondly, 20 uM of the compound to be tested was diluted with the cell growth medium containing 0.2% DMSO in 3-fold dilution to obtain 9 concentrations, and there were 10 concentration gradients in total. • 2.4.4.3 Addition of the compounds to be tested: the prepared gradient dilution solutions of compounds to be tested were taken and added to the cell culture plate at 100 ul/well; at this point, the maximum concentration of compounds to be tested was 10 uM, and the concentration of DMSO was 0.1%.

SK-BR3/BT474 = test: CTG cell survival assay, SK-BR3/BT474; type: cell-based; conditions: SK-BR3/BT474 cells
Excerpt: as §1, §2, §3, §4

MV-4-11 = test: CTG cell survival assay, MV-4-11; type: cell-based; conditions: Homo sapiens, MV4-11, MV-4-11 cells
Excerpt: as §1, §2, §3
2.1.1 Experimental Materials: compounds to be tested, cell basal culture medium, RPMI Medium 1640 (Invitrogen, Cat#11875-093), fetal calf serum (FBS): Hyclone FETAL BOVINE SERUM DEFINED (Invitrogen, Cat#SH30070.03), antibiotics: Penicilin Streptomycin (Invitrogen, Cat#15140-122), phosphate buffer (Corning Cellgro, Cat#R21-040-CV), cell digestive solution: 0.25% Trypsin-EDTA (Invitrogen, Cat#25200-056), CTG detection kit: Promega, Cat#G7571, flat-bottom 96-well black bottom plate: NUNC, Cat#165305, T25 culture flask: NUNC, Cat#156367, T75 culture flask: NUNC, Cat#156439
2.2 Experimental Instruments: Carbon Dioxide Incubator, SANYO-MCO-20AIC, Biosafe Cabinet: BSC-1360-LIIA2, Table-Top High-Speed Refrigerated Centrifuge: SorvallST 16R, Microplate Rapid Oscillator: QB-9001, M3 Reader: SpectraMax M3, Microscope: OLYMPUS-CKX41/CKX31.
2.3 Preparation of Solutions and Reagents: Formulation of cell growth medium: RPMI Medium 1640+10% FBS+antibiotics, others: trypsin digestive solution, phosphate buffer (PBS), DMSO, CTG detection kit.
2.4 Experimental Procedure: • 1.4.1 Cell Thawing: Cryogenic vials were removed from the liquid nitrogen container, directly immersed in a water bath at 37° C., and shaked from time to time to thaw. The cryogenic vials were removed from the water bath at 37° C., and transferred to the biosafe cabinet. Their lids were opened, and the cell suspensions were aspirated with pipettes, added to centrifuge tubes, and then added with more than 10 volumes of culture solution, mixed well; centrifuged for 5 min at 1000 rpm; the supernatant was discarded, and medium containing cell growth was added to resuspend cells. All cell suspensions were seeded to the T25 culture flasks and static cultured in an incubator at 37° C.; the culture solution were changed once on the next day, and continued to be cultured. • 2.4.2 Cell Passaging: After cells were grown to logarithmic phase and were 80%-90% confluent, cells were removed and placed in the biosafe cabinet, the old culture solution was discarded, and the cells were wetted and washed with PBS once or twice. An appropriate amount of 0.25% Trypsin-EDTA solution was added to the culture flasks. The flasks were placed in the carbon dioxide incubator at 37° C. for 2-5 min. An appropriate amount of cell growth medium containing 10% PBS was added to terminate the digestion, lightly swished, and transferred to the centrifuge tubes and centrifuged for 5 min at 1000 rpm. The cells were prepare (into cell suspensions for passaging and experimental use. • 2.4.3 Cell Plating • 2.4.3.1 A cell suspension was prepared: After cells were grown to logarithmic phase and were 80%-90% confluent, the cells were removed to the biosafe cabinet, and the old culture solution was discarded, then the cells were wetted and washed with PBS once or twice. An appropriate amount of 0.25% Trypsin-EDTA solution was added to the culture flask. The flask was placed in a carbon dioxide incubator at 37° C. for 2-5 min. An appropriate amount of the cell growth medium containing 10% PBS was added to terminate digestion, and was lightly swished. The solution was transferred to a centrifuge tube, centrifuged for 5 min at 1000 rpm, and counted. […]

Chain of mTOR kinase (P42345 1360-2549): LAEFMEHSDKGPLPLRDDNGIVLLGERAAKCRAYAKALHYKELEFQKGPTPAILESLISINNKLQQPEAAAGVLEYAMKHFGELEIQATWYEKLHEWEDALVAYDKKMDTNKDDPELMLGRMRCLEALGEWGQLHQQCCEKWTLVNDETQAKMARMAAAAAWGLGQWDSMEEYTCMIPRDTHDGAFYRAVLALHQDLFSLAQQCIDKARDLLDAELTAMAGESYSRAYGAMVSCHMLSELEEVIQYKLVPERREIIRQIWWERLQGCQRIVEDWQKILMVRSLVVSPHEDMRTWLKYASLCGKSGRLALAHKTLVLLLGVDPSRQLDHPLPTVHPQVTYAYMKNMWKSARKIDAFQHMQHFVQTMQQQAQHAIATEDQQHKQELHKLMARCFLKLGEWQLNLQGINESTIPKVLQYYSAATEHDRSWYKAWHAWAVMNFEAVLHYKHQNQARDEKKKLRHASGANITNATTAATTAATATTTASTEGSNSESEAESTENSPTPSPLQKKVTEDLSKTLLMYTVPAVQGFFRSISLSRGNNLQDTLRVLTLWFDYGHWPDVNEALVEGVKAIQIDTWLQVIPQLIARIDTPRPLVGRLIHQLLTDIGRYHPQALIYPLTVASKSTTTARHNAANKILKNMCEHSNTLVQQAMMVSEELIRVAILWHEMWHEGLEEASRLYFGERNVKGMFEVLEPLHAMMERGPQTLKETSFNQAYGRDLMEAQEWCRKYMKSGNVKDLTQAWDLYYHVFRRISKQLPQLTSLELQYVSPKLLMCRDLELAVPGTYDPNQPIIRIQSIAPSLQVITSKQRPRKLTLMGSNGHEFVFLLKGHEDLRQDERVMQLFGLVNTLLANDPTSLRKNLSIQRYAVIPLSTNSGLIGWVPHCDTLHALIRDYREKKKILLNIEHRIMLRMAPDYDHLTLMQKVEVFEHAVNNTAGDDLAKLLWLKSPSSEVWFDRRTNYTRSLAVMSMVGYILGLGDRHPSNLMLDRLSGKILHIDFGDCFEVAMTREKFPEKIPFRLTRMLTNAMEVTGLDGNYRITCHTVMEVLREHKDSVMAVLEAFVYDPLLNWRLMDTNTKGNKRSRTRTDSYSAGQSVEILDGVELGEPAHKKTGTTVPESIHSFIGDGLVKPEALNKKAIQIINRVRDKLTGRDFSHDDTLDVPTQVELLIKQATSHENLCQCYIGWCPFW

CC(=O)N1CCC(n2c(=O)n(C)c3cnc4ccc(-c5ccc(-c6cnn(C)c6)nc5)cc4c32)C1 (stereo not shown) [Example 11, 1-(1-acetylpyrrolidin-3-yl)-3-methyl-8-(6-(1-methyl-1H-pyrazol-4-yl)pyridin-3-yl)-1H-imidazo[4,5-c]quinolin-2(3H)-one]
IC50 (mTOR kinase): 100 to 1000 nM | EC50 (PC-3): < 1000 nM | EC50 (SK-BR3/BT474): < 1000 nM

Cn1cc(-c2ccc(-c3ccc4ncc5c(c4c3)n(C3CCN(S(=O)(=O)c4ccc(Cl)cc4)C3)c(=O)n5C)cn2)cn1 (stereo not shown) [Example 13, 1-(1-((4-chlorphenyl)sulfonyl)pyrrolidin-3-yl)-3-methyl-8-(6-(1-methyl-1H-pyrazol-4-yl)pyridin-3-yl)-1H-imidazo[4,5-c]quinolin-2(3H)-one]
IC50 (mTOR kinase): 100 to 1000 nM | EC50 (PC-3): < 1000 nM | EC50 (SK-BR3/BT474): < 500 nM

Cn1c(=O)n([C@H]2CCN(S(C)(=O)=O)C2)c2c3cc(-c4ccc(-c5ccccc5)nc4)ccc3ncc21 [Example 30, (S)-3-methyl-1-(1-(methanesulfonyl)pyrrolidin-3-yl)-8-(6-phenylpyridin-3-yl)-1H-imidazo[4,5-c]quinolin-2(3H)-one]
IC50 (mTOR kinase): < 10 nM | EC50 (MV-4-11): < 100 nM | EC50 (SK-BR3/BT474): < 100 nM

Cn1cc(-c2ccc(-c3ccc4ncc5c(c4c3)n(C3CCN(C(=O)C(F)(F)F)C3)c(=O)n5C)cn2)cn1 (stereo not shown) [Example 16, 3-methyl-8-(6-(1-methyl-1H-pyrazol-4-yl)pyridin-3-yl)-1-(1-(2,2,2-trifluoroacetyl)pyrrolidin-3-yl)-1H-imidazo[4,5-c]quinolin-2(3H)-one]
IC50 (mTOR kinase): 100 to 1000 nM | EC50 (PC-3): < 1000 nM

Cn1cc(-c2ccc(-c3ccc4ncc5c(c4c3)n(C3CCN(C(=O)CO)C3)c(=O)n5C)cn2)cn1 (stereo not shown) [Example 7, 1-(1-(2-hydroxyacetyl)pyrrolidin-3-yl)-3-methyl-8-(6-(1-methyl-1H-pyrazol-4-yl)pyridin-3-yl)-1H-imidazo[4,5-c]quinolin-2(3H)-one]
IC50 (mTOR kinase): 100 to 1000 nM | EC50 (PC-3): < 1000 nM | EC50 (SK-BR3/BT474): < 1000 nM

CCS(=O)(=O)N1CC[C@H](n2c(=O)n(C)c3cnc4ccc(-c5ccc(-c6cnn(C)c6)nc5)cc4c32)C1 [Example 29, (S)-1-(1-(ethylsulfonyl)pyrrolidin-3-yl)-3-methyl-8-(6-(1-methyl-1H-pyrazol-4-yl)pyridin-3-yl)-1H-imidazo[4,5-c]quinolin-2(3H)-one]
IC50 (mTOR kinase): < 10 nM | EC50 (MV-4-11): < 100 nM | EC50 (SK-BR3/BT474): < 100 nM

Cn1c(=O)n([C@H]2CCN(S(C)(=O)=O)C2)c2c3nc(-c4ccc(-c5ccccc5)nc4)ccc3ncc21 [Example 39, (S)-3-methyl-1-(1-(methanesulfonyl)pyrrolidin-3-yl)-8-(6-phenylpyridin-3-yl)-1H-imidazo[4,5-c][1,5]naphthyridin-2(3H)-one]
IC50 (mTOR kinase): < 10 nM | EC50 (PC-3): 37 nM

Cn1cc(-c2ccc(-c3ccc4ncc5c(c4n3)n(C3CCCN(S(C)(=O)=O)C3)c(=O)n5C)cn2)cn1 (stereo not shown) [Example 37, 3-methyl-8-(6-(1-methyl-1H-pyrazol-4-yl)pyridin-3-yl)-1-(1-(methanesulfonyl)piperidin-3-yl)-1H-imidazo[4,5-c][1,5]naphthyridin-2(3H)-one]
IC50 (mTOR kinase): < 10 nM | EC50 (MV-4-11): < 50 nM | EC50 (SK-BR3/BT474): < 50 nM

[2H]C([2H])([2H])n1c(=O)n(C2CCCN(S(C)(=O)=O)C2)c2c3cc(-c4ccc(-c5cnn(C)c5)nc4)ccc3ncc21 (stereo not shown) [Example 36, 3-deuteromethyl-8-(6-(1-methyl-1H-pyrazol-4-yl)pyridin-3-yl)-1-(1-(methanesulfonyl)piperidin-3-yl)-1H-imidazo[4,5-c]quinolin-2(3H)-one]
IC50 (mTOR kinase): < 10 nM | EC50 (MV-4-11): < 200 nM | EC50 (SK-BR3/BT474): < 500 nM

Cn1c(=O)n([C@H]2CC[C@@H](O)CC2)c2c3cc(-c4ccc(N)nc4)ccc3ncc21 [Example 26, 8-(6-aminopyridin-3-yl)1-((1s,4s)-4-hydroxycyclohexyl)-3-methyl-1H-imidazo[4,5-c]quinolin-2(3H)-one]
IC50 (mTOR kinase): < 10 nM | EC50 (MV-4-11): < 50 nM | EC50 (SK-BR3/BT474): < 200 nM

Cn1cc(-c2ccc(-c3ccc4ncc5c(c4c3)n(C3CCN(S(N)(=O)=O)C3)c(=O)n5C)cn2)cn1 (stereo not shown) [Example 15, 3-(3-methyl-8-(6-(1-methyl-1H-pyrazol-4-yl)pyridin-3-yl)-2-oxo-2,3-dihydro-1H-imidazo[4,5-c]quinolin-1-yl)pyrrolidine-1-sulfamide]
IC50 (mTOR kinase): 100 to 1000 nM | EC50 (PC-3): < 500 nM | EC50 (SK-BR3/BT474): < 1000 nM

Cc1ccc(S(=O)(=O)N2CCC(n3c(=O)n(C)c4cnc5ccc(-c6ccc(-c7cnn(C)c7)nc6)cc5c43)C2)cc1 (stereo not shown) [Example 14, 3-methyl-8-(6-(1-methyl-1H-pyrazol-4-yl)pyridin-3-yl)-1-(1-p-toluenesulfonylpyrrolidin-3-yl)-1H-imidazo[4,5-c]quinolin-2(3H)-one]
IC50 (mTOR kinase): 100 to 1000 nM | EC50 (PC-3): < 1000 nM | EC50 (SK-BR3/BT474): < 200 nM
